{
  "source": "paper PMC12040169",
  "about": "(PLOS Biology, 2025)",
  "data": [
    {"assay": "in vitro", "settings": "human, hela cells, % viability", "units": {"viability at 28.5 h, 10 µM": "%"}, "values": [
      {"compound": "COc1ccc(CCNC(=O)N2CCN(c3cc(C(F)(F)F)ccn3)CC2)cc1OC", "note": "[CBK162330]", "viability at 28.5 h, 10 µM": 105},
      {"compound": "CC(NC(=O)N1CCN(c2cc(C(F)(F)F)ccn2)CC1)c1ccccc1", "note": "(centres unmarked) [CBK162350]", "viability at 28.5 h, 10 µM": 91.7},
      {"compound": "CCOC(=O)N1CCC(NC(=O)N2CCN(c3cc(C(F)(F)F)ccn3)CC2)CC1", "note": "[CBK162353]", "viability at 28.5 h, 10 µM": 103},
      {"compound": "CN(Cc1ccc(-c2ccc(S(C)(=O)=O)cc2)nc1)C1CCNCC1", "note": "[CBK163942]", "viability at 28.5 h, 10 µM": 99.1},
      {"compound": "CC(C)(C)OC(=O)N1CCC(Oc2nccnc2OCc2ccc(Cl)cc2F)CC1", "note": "[CBK163968]", "viability at 28.5 h, 10 µM": 104},
      {"compound": "CN(Cc1ccc(-c2ccc(S(C)(=O)=O)cc2)nc1)C1CCN(C(=O)CC(F)(F)F)CC1", "note": "[CBK164098T]", "viability at 28.5 h, 10 µM": 99.3},
      {"compound": "COc1ccc(CCC(=O)N2CCC(N(C)Cc3ccc(-c4ccc(S(C)(=O)=O)cc4)nc3)CC2)cc1Cl", "note": "[CBK164102T]", "viability at 28.5 h, 10 µM": 86.6},
      {"compound": "CN(Cc1ccc(-c2ccc(S(C)(=O)=O)cc2)nc1)C1CCN(C(=O)Cc2cccc(C(F)(F)F)c2)CC1", "note": "[CBK164104T]", "viability at 28.5 h, 10 µM": 90.2},
      {"compound": "CC(=O)NCc1cccc(-c2cc(COc3ccc4c(c3)OCO4)cnc2-c2ccc(Cl)cc2)c1", "note": "[CBK164106A]", "viability at 28.5 h, 10 µM": 105},
      {"compound": "CCc1ccc(CNC(=O)Cn2nnc(-c3ccc(C(C)N4CCC(C)CC4)cc3)n2)cc1", "note": "(centres unmarked) [CBK164199T]", "viability at 28.5 h, 10 µM": 97.5},
      {"compound": "COc1cc(OC)cc(C(=O)N2CCC3(CC2)CC(=O)c2cc(C)c(C)cc2O3)c1", "note": "[CBK164201]", "viability at 28.5 h, 10 µM": 83.3},
      {"compound": "CC(=O)NCc1cccc(-c2cc(C(=O)NCCc3cccc(OC(F)(F)F)c3)cnc2-c2ccc(Cl)cc2)c1", "note": "[CBK164414]", "viability at 28.5 h, 10 µM": 84.7},
      {"compound": "CC(=O)NCc1cccc(-c2cc(C(=O)NCC3CN(Cc4ccccc4)CCO3)cnc2-c2ccc(Cl)cc2)c1", "note": "(centres unmarked) [CBK164416T]", "viability at 28.5 h, 10 µM": 88.5},
      {"compound": "Cc1ccc(CNC(=O)Cn2cc(-c3ccc(CN4CCC(C)CC4)cc3)nn2)cc1", "note": "[CBK164706]", "viability at 28.5 h, 10 µM": 87.1},
      {"compound": "CC1CCN(Cc2ccc(-c3cn(CC(=O)NCc4ccc(Br)cc4)nn3)cc2)CC1", "note": "[CBK164709]", "viability at 28.5 h, 10 µM": 93},
      {"compound": "CC(C)CCNCc1ccc(-c2cn(CC(=O)NCCc3ccccc3)nn2)cc1", "note": "[CBK164740]", "viability at 28.5 h, 10 µM": 95.9},
      {"compound": "Cc1nc2c(C(=O)NC3CCOCC3)cnn2c(C)c1Cc1cccc(Br)c1", "note": "[CBK165011]", "viability at 28.5 h, 10 µM": 92.3},
      {"compound": "Cn1cnc(S(=O)(=O)N(c2ccc(C(C)(C)C)cc2)C2CCNCC2)c1", "note": "[CBK165046T]", "viability at 28.5 h, 10 µM": 87.5},
      {"compound": "CC(=O)Nc1ccc(S(=O)(=O)N(c2ccc(C(C)(C)C)cc2)C2CCNCC2)cc1", "note": "[CBK165062T]", "viability at 28.5 h, 10 µM": 90.4},
      {"compound": "Cc1cc(S(=O)(=O)N(c2ccc(C(C)(C)C)cc2)C2CCNCC2)c(C)s1", "note": "[CBK165075T]", "viability at 28.5 h, 10 µM": 105},
      {"compound": "O=S(=O)(CC(F)(F)F)N(c1ccccc1)C1CCNCC1", "note": "[CBK165093T]", "viability at 28.5 h, 10 µM": 92.6},
      {"compound": "O=C1CCCN1c1ccc(S(=O)(=O)N(c2ccccc2)C2CCNCC2)cc1", "note": "[CBK165122T]", "viability at 28.5 h, 10 µM": 109},
      {"compound": "CC(C)CCN(Cc1ccc(-c2ccc(S(C)(=O)=O)cc2)nc1)C1CCN(C(=O)OC(C)(C)C)CC1", "note": "[CBK165138]", "viability at 28.5 h, 10 µM": 83.4},
      {"compound": "COCCNC(=O)c1cnn2c(C)c(Cc3ccccc3C(F)(F)F)c(C)nc12", "note": "[CBK165210]", "viability at 28.5 h, 10 µM": 95.7},
      {"compound": "CC(C)COC(=O)N1CCC(N(C)Cc2ccc(-c3ccc(S(C)(=O)=O)cc3)nc2)CC1", "note": "[CBK165259T]", "viability at 28.5 h, 10 µM": 90.4},
      {"compound": "CC(C)OC(=O)N1CCC(N(C)Cc2ccc(-c3ccc(S(C)(=O)=O)cc3)nc2)CC1", "note": "[CBK165261T]", "viability at 28.5 h, 10 µM": 121},
      {"compound": "COc1ccc(S(=O)(=O)N(Cc2cc(F)cc(F)c2)C2CCNCC2)cc1", "note": "[CBK165292T]", "viability at 28.5 h, 10 µM": 89.8},
      {"compound": "CC1CCN(Cc2ccc(-c3cn(CC(=O)NCc4ccc(Br)cc4F)nn3)cc2)CC1", "note": "[CBK165756C]", "viability at 28.5 h, 10 µM": 91.1},
      {"compound": "CC(C)(C)OC(=O)N1CCC(N2CCc3cc(-c4ccc(S(C)(=O)=O)cc4)ccc3C2)CC1", "note": "[CBK165796]", "viability at 28.5 h, 10 µM": 82.7},
      {"compound": "Cc1cccc(C(=O)N2CCC(N(C)Cc3ccc(-c4ccc(S(C)(=O)=O)cc4)nc3)CC2)n1", "note": "[CBK165937T]", "viability at 28.5 h, 10 µM": 81.5},
      {"compound": "CN(Cc1ccc(-c2ccc(S(C)(=O)=O)cc2)nc1)C1CCN(C(=O)c2cc(Cl)ccc2Cl)CC1", "note": "[CBK165943T]", "viability at 28.5 h, 10 µM": 84.5},
      {"compound": "CC1CCN(Cc2ccc(-c3cn(CC(=O)NCc4ccc(Br)cc4)cn3)cc2)CC1", "note": "[CBK165969]", "viability at 28.5 h, 10 µM": 104},
      {"compound": "CC(C)CCNCc1ccc(-c2cn(CC(=O)NCc3ccc(C(F)(F)F)cc3)cn2)cc1", "note": "[CBK165976]", "viability at 28.5 h, 10 µM": 91.7},
      {"compound": "N#Cc1ccc(-c2cncc(NC3CCC(O)CC3)n2)cc1", "note": "(centres unmarked) [CBK166007T]", "viability at 28.5 h, 10 µM": 88.2},
      {"compound": "COc1ccc2c(c1)OC1(CCN(C(=O)c3cc(OC)c(C)c(OC)c3)CC1)NC2=O", "note": "[CBK166244]", "viability at 28.5 h, 10 µM": 82.6},
      {"compound": "COc1ccc(C(=O)N2CCC3(CC2)NC(=O)c2ccc(C(F)(F)F)cc2O3)cc1OC", "note": "[CBK166265]", "viability at 28.5 h, 10 µM": 102},
      {"compound": "COc1ccc2c(c1)C(=O)NC1(CCN(C(=O)c3ccc(OC)c(C)c3)CC1)O2", "note": "[CBK166291]", "viability at 28.5 h, 10 µM": 106},
      {"compound": "CCCN(C)Cc1ccc(-c2cn(CC(=O)NCc3ccc4c(c3)OC(F)(F)O4)nn2)cc1", "note": "[CBK166361]", "viability at 28.5 h, 10 µM": 101},
      {"compound": "CCCN(C)Cc1ccc(-c2cn(CC(=O)NCc3ccc(OCC(F)F)cc3)nn2)cc1", "note": "[CBK166365]", "viability at 28.5 h, 10 µM": 106},
      {"compound": "COc1ccc(S(=O)(=O)N2CCC3(CC2)CC(=O)c2ccc(C)cc2O3)cc1OC", "note": "[CBK166515]", "viability at 28.5 h, 10 µM": 96.8},
      {"compound": "COc1cc(NC(=O)N2CCC3(CC2)CC(=O)c2ccc(C)cc2O3)cc(OC)c1", "note": "[CBK166521]", "viability at 28.5 h, 10 µM": 90.3},
      {"compound": "CC(C)(C)OC(=O)N1CCC(N(CCC(F)(F)F)Cc2ccc(-c3ccc(S(C)(=O)=O)cc3)nc2)CC1", "note": "[CBK167262]", "viability at 28.5 h, 10 µM": 81},
      {"compound": "Cc1cc(N2CCC(O)CC2)nc(N)n1", "note": "[CBK167265]", "viability at 28.5 h, 10 µM": 109},
      {"compound": "Cc1cc(N2CCC(N(C)C)CC2)nc(N)n1", "note": "[CBK167267]", "viability at 28.5 h, 10 µM": 106},
      {"compound": "Cc1nc2c(C(=O)NCCOCCO)cnn2c(C)c1Cc1cccc(OC(F)(F)F)c1", "note": "[CBK167454]", "viability at 28.5 h, 10 µM": 114},
      {"compound": "Cc1nc2c(C(=O)NCC3OCCO3)cnn2c(C)c1Cc1ccc(Br)cc1", "note": "[CBK167467]", "viability at 28.5 h, 10 µM": 99.8},
      {"compound": "CC(C)(O)CCN(Cc1ccc(-c2ccc(S(C)(=O)=O)cc2)nc1)C1CCN(C(=O)OC(C)(C)C)CC1", "note": "[CBK167517]", "viability at 28.5 h, 10 µM": 101},
      {"compound": "CCCNCc1ccc(-c2nnn(CC(=O)NCc3ccc(C4CCC4)cc3)n2)cc1", "note": "[CBK167525C]", "viability at 28.5 h, 10 µM": 105},
      {"compound": "CN(C)CCNC(=O)c1ccc(-c2cnc(OCC3CCN(C(=O)OC(C)(C)C)CC3)nc2)cc1", "note": "[CBK167544]", "viability at 28.5 h, 10 µM": 89.8},
      {"compound": "C[C@H](NC(=O)Cn1cc(-c2ccc(CN3CCCC3)cc2)nn1)c1ccc(Br)cc1", "note": "[CBK167692]", "viability at 28.5 h, 10 µM": 86},
      {"compound": "COc1cc(OC)cc(C(=O)N2CCC3(CC2)CC(=O)c2cc(C)ccc2O3)c1", "note": "[CBK167804]", "viability at 28.5 h, 10 µM": 94.6},
      {"compound": "Cc1cc(N2CCC(N3CCN(C)CC3)CC2)nc(N)n1", "note": "[CBK167964]", "viability at 28.5 h, 10 µM": 94.3},
      {"compound": "CCOc1cc(OCC)cc(C(=O)N2CCC3(CC2)CC(=O)c2cc(CC)ccc2O3)c1", "note": "[CBK168009]", "viability at 28.5 h, 10 µM": 101},
      {"compound": "CCOc1cc(OCC)cc(C(=O)N2CCC3(CC2)CC(=O)c2cc(OCC)ccc2O3)c1", "note": "[CBK168013]", "viability at 28.5 h, 10 µM": 87.2},
      {"compound": "CCOc1cc(OCC)cc(C(=O)N2CCC3(CC2)CC(=O)c2ccc(OCC)c(C)c2O3)c1", "note": "[CBK168015]", "viability at 28.5 h, 10 µM": 112},
      {"compound": "CCOc1cc(OCC)cc(C(=O)N2CCC3(CC2)CC(=O)c2ccc(N)cc2O3)c1", "note": "[CBK168018]", "viability at 28.5 h, 10 µM": 111}
    ]}
  ]
}
